Structures are written as SMILES.

Data set [1] can be described thus: Kinetic solubility in PBS. In kind it is physicochemical. To be noted: pH 7.4.
Data set [2] is described as follows: Liver microsomal stability, human. Type of data set: in vitro ADME.
Data set [3] is described as follows: Liver microsomal stability, rat. In kind it is in vitro ADME. A general note: Microsomes from liver hold many membrane-bound enzymes, among them those of drug oxidation.
A short description of data set [4]: Liver microsomal stability, mouse. In kind it is in vitro ADME.
The nature of data set [5]: Liver microsomal stability, monkey. Type of data set: in vitro ADME, cynomolgus monkey. To be noted: for half-life: cynomolgus monkey.
A further data set deals with CYP2C9 (Homo sapiens, UniProt P11712). Nature of the data set: CYP inhibition 2C9. Type of data set: in vitro ADME.
The target of the next data set is CYP2C19 (Homo sapiens, UniProt P33261). Nature of the data set: CYP inhibition 2C19. In kind it is in vitro ADME.
The next data set deals with CYP2D6 (Homo sapiens, UniProt P10635). Nature of the data set: CYP inhibition 2D6. Type of data set: in vitro ADME.
Another data set deals with CYP3A4 (Homo sapiens, UniProt P08684). Description: CYP inhibition 3A4. In kind it is in vitro ADME.
Data set [6] is described as follows: Plasma protein binding, human. Type of data set: in vitro ADME.
The nature of data set [7]: Plasma protein binding, rat. Type of data set: in vitro ADME.
Data set [8] deals with ATTR-CM. Particulars: 28 day phase II, cited from earlier work.
The next data set relates to serum RBP4 levels. More on the design: species or system mice. To be noted: mouse, in vivo, po.
The test system of data set [9] is ATTR-CM. Particulars: 441 ATTR-CM patients, compared to placebo; cited from earlier work.
A further data set relates to hereditary ATTR. To be noted: patients with hereditary ATTR; cited from earlier work.
The test system of a further data set is TTR. To be noted: ITC; cited from earlier work. In general terms: In ITC the heat of successive injections is recorded.

Sequence of CYP2C9 (P11712 whole entry): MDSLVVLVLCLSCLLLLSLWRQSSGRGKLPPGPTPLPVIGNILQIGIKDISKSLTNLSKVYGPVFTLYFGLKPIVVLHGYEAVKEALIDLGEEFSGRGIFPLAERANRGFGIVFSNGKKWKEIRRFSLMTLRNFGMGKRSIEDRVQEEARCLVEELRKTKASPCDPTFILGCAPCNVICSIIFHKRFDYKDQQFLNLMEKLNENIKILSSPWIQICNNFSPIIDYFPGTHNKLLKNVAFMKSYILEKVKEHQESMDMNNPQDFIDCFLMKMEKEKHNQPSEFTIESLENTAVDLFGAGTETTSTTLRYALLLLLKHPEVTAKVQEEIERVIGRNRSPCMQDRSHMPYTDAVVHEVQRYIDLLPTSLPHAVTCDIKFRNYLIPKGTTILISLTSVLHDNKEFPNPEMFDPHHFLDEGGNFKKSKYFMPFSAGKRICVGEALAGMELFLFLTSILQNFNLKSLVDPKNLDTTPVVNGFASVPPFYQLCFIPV
Sequence of CYP2C19 (P33261 whole entry): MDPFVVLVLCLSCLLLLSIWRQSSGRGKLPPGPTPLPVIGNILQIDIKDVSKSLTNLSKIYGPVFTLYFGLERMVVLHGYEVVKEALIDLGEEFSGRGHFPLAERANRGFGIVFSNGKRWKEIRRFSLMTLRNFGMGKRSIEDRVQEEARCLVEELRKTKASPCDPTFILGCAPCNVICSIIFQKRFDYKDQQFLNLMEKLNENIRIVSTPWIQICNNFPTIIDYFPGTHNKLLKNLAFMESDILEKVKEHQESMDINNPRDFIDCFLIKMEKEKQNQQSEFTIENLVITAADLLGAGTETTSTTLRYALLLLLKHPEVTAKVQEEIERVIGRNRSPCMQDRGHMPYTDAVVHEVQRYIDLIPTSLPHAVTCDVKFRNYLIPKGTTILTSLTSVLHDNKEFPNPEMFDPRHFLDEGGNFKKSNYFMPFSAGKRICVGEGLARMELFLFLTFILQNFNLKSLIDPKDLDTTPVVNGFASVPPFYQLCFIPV
Sequence of CYP2D6 (P10635 whole entry): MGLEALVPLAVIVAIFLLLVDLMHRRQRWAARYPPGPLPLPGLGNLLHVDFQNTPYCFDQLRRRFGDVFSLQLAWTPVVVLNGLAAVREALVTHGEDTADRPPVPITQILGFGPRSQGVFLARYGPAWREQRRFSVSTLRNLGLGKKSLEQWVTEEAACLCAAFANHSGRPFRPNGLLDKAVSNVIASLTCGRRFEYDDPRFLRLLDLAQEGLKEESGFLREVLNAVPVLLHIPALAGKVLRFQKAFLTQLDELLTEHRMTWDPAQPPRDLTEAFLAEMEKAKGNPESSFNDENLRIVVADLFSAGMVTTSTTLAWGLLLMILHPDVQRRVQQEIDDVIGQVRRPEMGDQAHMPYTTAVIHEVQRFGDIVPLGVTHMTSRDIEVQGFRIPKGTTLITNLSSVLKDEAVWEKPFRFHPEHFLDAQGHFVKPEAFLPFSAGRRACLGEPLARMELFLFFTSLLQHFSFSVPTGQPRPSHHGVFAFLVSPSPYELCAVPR
Sequence of CYP3A4 (P08684 whole entry): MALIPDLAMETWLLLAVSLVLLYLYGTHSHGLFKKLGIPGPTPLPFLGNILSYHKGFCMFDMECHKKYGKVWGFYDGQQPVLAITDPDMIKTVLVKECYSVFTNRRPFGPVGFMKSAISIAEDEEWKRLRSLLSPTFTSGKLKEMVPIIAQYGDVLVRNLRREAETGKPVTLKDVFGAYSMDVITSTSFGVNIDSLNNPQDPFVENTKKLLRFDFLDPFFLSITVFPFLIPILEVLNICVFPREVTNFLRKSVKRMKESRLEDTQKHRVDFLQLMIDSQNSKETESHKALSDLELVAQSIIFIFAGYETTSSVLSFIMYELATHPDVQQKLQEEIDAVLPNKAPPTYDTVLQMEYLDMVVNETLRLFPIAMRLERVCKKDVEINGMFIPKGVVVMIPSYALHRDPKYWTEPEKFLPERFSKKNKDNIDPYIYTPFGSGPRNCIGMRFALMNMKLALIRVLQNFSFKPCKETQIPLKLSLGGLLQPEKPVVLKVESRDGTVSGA

Broadly, the solubility is the concentration that dissolves in the medium under given conditions. Usually half-life stands for the time in which the quantity being followed falls by half. The microsomal CLint is the capacity of the preparation to metabolise the compound, expressed as a volume cleared per time. What is called inhibition is the change of the read-out against control, counted positive when it falls. By fraction unbound is commonly meant the share of the substance not bound to proteins or other matrix. In data set [1], `COc1ccc(C(=O)O)cc1N1CCN(c2c(C)n[nH]c2C)CC1` [20b, 3-(4-(3,5-dimethyl-1H-pyrazol-4-yl)piperazin-1-yl)-4-methoxybenzoic acid] returned a solubility of at least 200 µM. Moreover, the half-life in data set [2] (liver microsomes), in data set [3] (liver microsomes), in data set [4] (liver microsomes) and in [5] (liver microsomes) was over 1 h in each case. Besides, the microsomal CLint in data set [2] (liver microsomes) is under 23.1 µL/min/mg; in [3] (liver microsomes), under 23.1 µL/min/mg; in data set [4] (liver microsomes), under 23.1 µL/min/mg; in [5] (monkey, liver microsomes), under 23.1 µL/min/mg. The fraction remaining at 0.5 h was found to be 108% in [2] (liver microsomes); 101% in data set [3] (liver microsomes); 102% in [4] (liver microsomes); 102% in data set [5] (monkey, liver microsomes). Besides, the inhibition at 10 µM against CYP2C9 came out at 1.4%; on CYP2C19, 4.2%; on CYP2D6, 8%; against CYP3A4, 19.6%. Further, the fraction unbound in data set [6] was 0.25; in data set [7], 0.22.

Consider `Cc1ccc(C(=O)O)cc1N1CCN(c2c(C)n[nH]c2C)CC1` [20c, 3-(4-(3,5-dimethyl-1H-pyrazol-4-yl)piperazin-1-yl)-4-methylbenzoic acid], for which the half-life in data set [2] (microsomes), in data set [3] (microsomes), in [4] (microsomes) and in data set [5] (microsomes) was over 1 h throughout.

As for `Cc1n[nH]c(C)c1N1CCN(c2cc(C(=O)O)ccc2C(F)(F)F)CC1` [20d, 3-(4-(3,5-dimethyl-1H-pyrazol-4-yl)piperazin-1-yl)-4-(trifluoromethyl)benzoic acid], the half-life in data set [2] (microsomes), in data set [3] (microsomes), in data set [4] (microsomes) and in data set [5] (microsomes) was over 1 h throughout.

For `Cc1n[nH]c(C)c1N1CCN(c2cc(C(=O)O)ccc2Cl)CC1` [20e, 4-chloro-3-(4-(3,5-dimethyl-1H-pyrazol-4-yl)piperazin-1-yl)benzoic acid], the half-life in data set [2] (liver microsomes), in data set [3] (liver microsomes), in data set [4] (liver microsomes) and in data set [5] (liver microsomes) was over 1 h each time.

For `Cc1cc(F)c(N2CCN(c3c(C)n[nH]c3C)CC2)cc1C(=O)O` [20i, 5-(4-(3,5-dimethyl-1H-pyrazol-4-yl)piperazin-1-yl)-4-fluoro-2-methylbenzoic acid], the half-life in data set [2] (liver microsomes), in data set [3] (liver microsomes), in data set [4] (liver microsomes) and in data set [5] (liver microsomes) was over 1 h each time.

Turning to `Cc1n[nH]c(C)c1CCCOc1cc(C(=O)O)ccc1F` [AG10, acoramidis], in the data set with ATTR-CM [8] (ATTR-CM patients with symptomatic chronic heart failure), the “stabilization of TTR” value was “near-complete stabilization”. Further, the tolerability entry with ATTR-CM [8] was “well tolerated”.

For the compound `Cc1n[nH]c(C)c1N1CCN(c2cc(C(=O)O)ccc2F)CC1` [compound 14, 3-(4-(3,5-dimethyl-1H-pyrazol-4-yl)piperazin-1-yl)-4-fluorobenzoic acid], the half-life in data set [2] (microsomes), in data set [3] (microsomes), in data set [4] (microsomes) and in [5] (microsomes) was over 1 h throughout. Moreover, the “changes in serum TTR levels” value in the data set with serum RBP4 levels is “No changes”.

For the compound `Cc1n[nH]c(C)c1N1CCN(c2cc(-c3nn[nH]n3)ccc2F)CC1` [compound 54, 1-(3,5-dimethyl-1H-pyrazol-4-yl)-4-(2-fluoro-5-(2H-tetrazol-5-yl)phenyl)piperazine], the half-life in data set [2] (microsomes) is 1.26 h; in data set [3] (microsomes), under 1 h; in data set [4] (microsomes), under 1 h; in data set [5] (microsomes) it was under 1 h. This compound also had a microsomal CLint in data set [2] (microsomes) of 18.4 µL/min/mg.

With `O=C(O)c1ccc2nc(-c3cc(Cl)cc(Cl)c3)oc2c1` [tafamidis], in the data set on ATTR-CM [9], the “reduction of the rate of cardiovascular-related hospitalizations” value is 32% and the “reduction of the risk of death” value is given as 30%. Also, the “patients who do not respond” value with hereditary ATTR is on record as “Approximately 30%”. The ΔH in the data set with TTR is -5.00 kcal/mol.

These data come from publication PMC9578043 (Journal of medicinal chemistry, 2021).
